Assay results taken from PMC4497506 (Journal of medicinal chemistry, 2015).
*1 amine or outer side, *2 acyl side, *3 side chain or, on linkers, in order; H or OH if unused. Where a SMILES comes first, the peptide text is derived from it. [ ]: non-standard residue; d: D form. X1 = O=C([C@@H]1C[C@H](n2cc([C]34[CH]5[CH]6[CH]7[CH]3[Fe]6754389%10[CH]4[CH]3[CH]8[CH]9[CH]4%10)nn2)CN1[*:1])[*:2]; X2 = O=C([C@@H]1C[C@H](n2nncc2[C]23[CH]4[CH]5[CH]6[CH]2[Fe]56432789[CH]3[CH]2[CH]7[CH]8[CH]39)CN1[*:1])[*:2]; Bta = N[C@@H](Cc1csc2ccccc12)C(=O)O

Columns and labels:
[1] = molecular target: gp120YU-2 S375H (Human immunodeficiency virus type 1 group M subtype B, UniProt P35961, S370H); assay: Competition SPR: inhibition of gp120 S375H binding to sCD4; set-up: species or system HIV-1
[2] = molecular target: wt gp120YU-2 (Human immunodeficiency virus type 1 group M subtype B, UniProt P35961); assay: Competition SPR: inhibition of wt gp120YU-2 binding to immobilized sCD4; set-up: species or system HIV-1; details: relative to peptide 1

Compound | inhibition of S375H mutant binding to sCD4 [1] | weaker binding than peptide 1 [2]
CC[C@H](C)[C@H](N)C(=O)N[C@@H](CC(N)=O)C(=O)N[C@@H](CC(N)=O)C(=O)N[C@H](C(=O)N1C[C@@H](n2cc([C]34[CH]5[CH]6[CH]7[CH]3[Fe]6754389%10[CH]4[CH]3[CH]8[CH]9[CH]4%10)nn2)C[C@H]1C(=O)N[C@@H](Cc1csc2ccccc12)C(N)=O)[C@@H](C)CC (some centres unmarked) [peptide 3] (H-INNI[X1][Bta]-NH2) | resistant | 
CC[C@H](C)[C@H](N)C(=O)N[C@@H](CC(N)=O)C(=O)N[C@@H](CC(N)=O)C(=O)N[C@H](C(=O)N1C[C@@H](n2nncc2[C]23[CH]4[CH]5[CH]6[CH]2[Fe]56432789[CH]3[CH]2[CH]7[CH]8[CH]39)C[C@H]1C(=O)N[C@@H](Cc1c[nH]c2ccccc12)C(N)=O)[C@@H](C)CC (some centres unmarked) [peptide 6] (H-INNI[X2]W-NH2) |  | ~200 fold
